Source: ChEMBL document CHEMBL4680116, “Development of benzimidazole-based derivatives as antimicrobial agents and their synergistic effect with colistin against gram-negative bacteria” (Eur J Med Chem, 2020)
≈ marks a conversion by molar mass, not a printed value.

Columns and labels:
Escherichia coli [1] = assay: Antimicrobial activity against Escherichia coli JW55031 TolC mutant assessed as reduction in microbial growth incubated for 18 to 20 hrs by broth microdilution method
Klebsiella pneumoniae [2] = assay: Synergistic antibacterial activity against Klebsiella pneumoniae ATCC 1706 in presence of 0.25 times MIC of colistin incubated for 18 to 20 hrs by broth microdilution method; assay type: functional; details: time 18-20 hrs
Acinetobacter baumannii [3] = assay: Antibacterial activity against Acinetobacter baumannii ATCC 19606 incubated for 18 to 20 hrs by broth microdilution method; assay type: functional; details: time 18-20 hrs
Acinetobacter baumannii [4] = assay: Synergistic antibacterial activity against Acinetobacter baumannii ATCC 19606 in presence of 0.25 times MIC of colistin incubated for 18 to 20 hrs by broth microdilution method; assay type: functional; details: time 18-20 hrs
Pseudomonas aeruginosa [5] = assay: Antibacterial activity against Pseudomonas aeruginosa ATCC 15442 incubated for 18 to 20 hrs by broth microdilution method; assay type: functional; details: time 18-20 hrs
Escherichia coli [6] = assay: Synergistic antibacterial activity against wild type Escherichia coli BW25113 in presence of 0.25 times MIC of colistin incubated for 18 to 20 hrs by broth microdilution method; assay type: functional; details: time 18-20 hrs
Escherichia coli [7] = assay: Synergistic antibacterial activity against Escherichia coli ATCC 25922 in presence of 0.25 times MIC of colistin incubated for 18 to 20 hrs by broth microdilution method; assay type: functional; details: time 18-20 hrs
Pseudomonas aeruginosa [8] = assay: Synergistic antibacterial activity against Pseudomonas aeruginosa ATCC 15442 in presence of 0.25 times MIC of colistin incubated for 18 to 20 hrs by broth microdilution method; assay type: functional; details: time 18-20 hrs
Escherichia coli [9] = assay: Antibacterial activity against Escherichia coli ATCC 25922 incubated for 18 to 20 hrs by broth microdilution method; assay type: functional; details: time 18-20 hrs
Klebsiella pneumoniae [10] = assay: Antibacterial activity against Klebsiella pneumoniae ATCC 1706 incubated for 18 to 20 hrs by broth microdilution method; assay type: functional; details: time 18-20 hrs
Escherichia coli [11] = assay: Antibacterial activity against wild type Escherichia coli BW25113 incubated for 18 to 20 hrs by broth microdilution method; assay type: functional; details: time 18-20 hrs
Caco-2 = assay: Cytotoxicity against human Caco-2 cells assessed as reduction in cell viability incubated for 2 hrs by MTS assay; assay type: cell-based; details: caco-2, 2 h
Vero = assay: Cytotoxicity against African green monkey Vero cells assessed as reduction in cell viability incubated for 2 hrs by MTS assay; assay type: cell-based; details: chlorocebus sabaeus

COc1ccc(-c2nc3ccccc3n2Cc2ccc(C)cc2)cc1
MIC (Escherichia coli [1]): > 128 µg/mL

Cc1ccc(Cn2c(-c3ccccc3)nc3ccccc32)cc1
MIC (Escherichia coli [1]): 8 µg/mL

c1ccc(Cn2c(-c3ccccc3)nc3ccccc32)cc1
MIC (Escherichia coli [1]): 16 µg/mL

CC(=O)Nc1cccc(-c2nc3ccccc3n2Cc2ccc(Cl)cc2)c1
MIC (Escherichia coli [1]): > 128 µg/mL

CCCCCCCCCC(=O)N[C@@H](Cc1c[nH]c2ccccc12)C(=O)N[C@H](CC(N)=O)C(=O)N[C@@H](CC(=O)O)C(=O)N[C@@H]1C(=O)NCC(=O)N[C@@H](CCCN)C(=O)N[C@@H](CC(=O)O)C(=O)N[C@H](C)C(=O)N[C@@H](CC(=O)O)C(=O)NCC(=O)N[C@H](CO)C(=O)N[C@@H]([C@H](C)CC(=O)O)C(=O)N[C@@H](CC(=O)c2ccccc2N)C(=O)O[C@@H]1C
MIC (Klebsiella pneumoniae [2]): > 128 µg/mL
MIC (Acinetobacter baumannii [3]): > 128 µg/mL
MIC (Acinetobacter baumannii [4]): > 128 µg/mL
MIC (Pseudomonas aeruginosa [5]): > 128 µg/mL
MIC (Escherichia coli [6]): > 128 µg/mL
MIC (Escherichia coli [7]): > 128 µg/mL
MIC (Pseudomonas aeruginosa [8]): > 128 µg/mL
MIC (Escherichia coli [9]): > 128 µg/mL
MIC (Klebsiella pneumoniae [10]): > 128 µg/mL
MIC (Escherichia coli [11]): > 128 µg/mL

CS(=O)(=O)Nc1cccc(-c2nc3ccccc3n2CC2CCCCC2)c1
MIC (Escherichia coli [1]): 16 µg/mL

Cc1ccc(Cn2c(-c3cccc(C#N)c3)nc3ccccc32)cc1
MIC (Escherichia coli [1]): 16 µg/mL

CS(=O)(=O)Nc1cccc(-c2nc3ccccc3n2Cc2ccc(Cl)cc2)c1
MIC (Escherichia coli [1]): 8 µg/mL

CC(=O)Nc1cccc(-c2nc3ccccc3n2Cc2ccc(C)cc2)c1
MIC (Escherichia coli [1]): > 128 µg/mL

CS(=O)(=O)Nc1cccc(-c2nc3ccccc3n2Cc2ccc(C#N)cc2)c1
MIC (Escherichia coli [1]): 64 µg/mL

CS(=O)(=O)Nc1cccc(-c2nc3ccccc3n2Cc2ccccc2)c1
MIC (Escherichia coli [1]): 16 µg/mL

CS(=O)(=O)Nc1cccc(-c2nc3ccccc3n2Cc2ccc(Cl)cc2Cl)c1
MIC (Escherichia coli [1]): 8 µg/mL

Cc1ccc(Cn2c(-c3cccc(C(F)(F)F)c3)nc3ccccc32)cc1
MIC (Escherichia coli [1]): > 128 µg/mL

Cc1ccc(Cn2c(-c3cccc([N+](=O)[O-])c3)nc3ccccc32)cc1
MIC (Escherichia coli [1]): > 128 µg/mL

Cc1ccc(Cn2c(-c3ccc(C(F)(F)F)cc3)nc3ccccc32)cc1
MIC (Escherichia coli [1]): 128 µg/mL

CS(=O)(=O)Nc1cccc(-c2nc3ccccc3n2Cc2cccc(F)c2)c1
MIC (Escherichia coli [1]): 64 µg/mL

CS(=O)(=O)Nc1cccc(-c2nc3ccccc3n2Cc2ccc(Br)cc2)c1
MIC (Escherichia coli [1]): 4 µg/mL

Cc1ccc(Cn2c(-c3cccc(N)c3)nc3ccccc32)cc1
MIC (Escherichia coli [1]): 4 µg/mL

Cc1ccc(Cn2c(-c3ccc(Cl)cc3)nc3ccccc32)cc1
MIC (Escherichia coli [1]): > 128 µg/mL

CS(=O)(=O)Nc1cccc(-c2nc3ccccc3n2Cc2cccc(C#N)c2)c1
MIC (Escherichia coli [1]): > 128 µg/mL

Cc1ccc(Cn2c(-c3ccc(OC(F)(F)F)cc3)nc3ccccc32)cc1
MIC (Escherichia coli [1]): > 128 µg/mL

Nc1cccc(-c2nc3ccccc3n2Cc2ccc(C(F)(F)F)cc2)c1
MIC (Escherichia coli [1]): 8 µg/mL

CS(=O)(=O)Nc1cccc(-c2nc3ccccc3n2Cc2ccc(OC(F)(F)F)cc2)c1
MIC (Escherichia coli [1]): > 128 µg/mL

FC(F)(F)c1ccc(Cn2c(-c3ccccc3)nc3ccccc32)cc1
MIC (Escherichia coli [1]): 8 µg/mL

CS(=O)(=O)Nc1cccc(-c2nc3ccccc3n2Cc2ccc(F)cc2)c1
MIC (Escherichia coli [1]): 32 µg/mL

CS(=O)(=O)Nc1cccc(-c2nc3ccccc3n2Cc2cccc3ccccc23)c1
MIC (Escherichia coli [1]): > 128 µg/mL

Cc1ccc(Cn2c(-c3ccc(C#N)cc3)nc3ccccc32)cc1
MIC (Escherichia coli [1]): > 128 µg/mL

Cc1cccc(Cn2c(-c3cccc(NS(C)(=O)=O)c3)nc3ccccc32)c1
MIC (Escherichia coli [1]): 16 µg/mL

Cc1ccc(Cn2c(-c3cccc(NS(C)(=O)=O)c3)nc3ccccc32)cc1
MIC (Klebsiella pneumoniae [2]): 8 µg/mL
MIC (Escherichia coli [1]): 2 µg/mL
MIC (Acinetobacter baumannii [3]): > 128 µg/mL
MIC (Acinetobacter baumannii [4]): 8 µg/mL
MIC (Pseudomonas aeruginosa [5]): > 128 µg/mL
MIC (Escherichia coli [6]): 16 µg/mL
MIC (Escherichia coli [7]): 16 µg/mL
Activity (Caco-2): Non-Toxic
MIC (Pseudomonas aeruginosa [8]): 16 µg/mL
Activity (Vero): Non-Toxic
MIC (Escherichia coli [9]): > 128 µg/mL
MIC (Klebsiella pneumoniae [10]): > 128 µg/mL
MIC (Escherichia coli [11]): > 128 µg/mL

CS(=O)(=O)Nc1cccc(-c2nc3ccccc3n2Cc2ccc(Cl)c(Cl)c2)c1
MIC (Escherichia coli [1]): 8 µg/mL

Nc1cccc(-c2nc3ccccc3n2Cc2ccc(Cl)c(Cl)c2)c1
MIC (Escherichia coli [1]): 4 µg/mL

CS(=O)(=O)Nc1cccc(-c2nc3ccccc3n2Cc2cccc(Cl)c2)c1
MIC (Escherichia coli [1]): 16 µg/mL

CS(=O)(=O)Nc1cccc(-c2nc3ccccc3n2Cc2ccc(C(F)(F)F)cc2)c1
MIC (Escherichia coli [1]): 16 µg/mL

Cc1ccc(Cn2c(-c3ccc(NS(C)(=O)=O)cc3)nc3ccccc32)cc1
MIC (Escherichia coli [1]): > 128 µg/mL

CC[C@H]1OC(=O)[C@H](C)[C@@H](O[C@H]2C[C@@](C)(OC)[C@@H](O)[C@H](C)O2)[C@H](C)[C@@H](O[C@@H]2O[C@H](C)C[C@H](N(C)C)[C@H]2O)[C@](C)(O)C[C@@H](C)C(=O)[C@H](C)[C@@H](O)[C@]1(C)O [ERYTHROMYCIN]
MIC (Klebsiella pneumoniae [2]): 2 µg/mL
MIC (Acinetobacter baumannii [3]): 16 µg/mL (≈ 21.8 µM)
MIC (Acinetobacter baumannii [4]): 0.5 µg/mL
MIC (Pseudomonas aeruginosa [5]): 64 µg/mL (≈ 87.2 µM)
MIC (Escherichia coli [6]): 1 µg/mL
MIC (Escherichia coli [7]): 1 µg/mL
MIC (Pseudomonas aeruginosa [8]): 2 µg/mL
MIC (Escherichia coli [9]): 16 µg/mL (≈ 21.8 µM)
MIC (Klebsiella pneumoniae [10]): 64 µg/mL (≈ 87.2 µM)
MIC (Escherichia coli [11]): 16 µg/mL (≈ 21.8 µM)

CC(=O)NC[C@H]1CN(c2ccc(N3CCOCC3)c(F)c2)C(=O)O1 [LINEZOLID]
MIC (Klebsiella pneumoniae [2]): > 128 µg/mL
MIC (Escherichia coli [1]): 8 µg/mL
MIC (Acinetobacter baumannii [3]): > 128 µg/mL
MIC (Acinetobacter baumannii [4]): > 128 µg/mL
MIC (Pseudomonas aeruginosa [5]): > 128 µg/mL
MIC (Escherichia coli [6]): 128 µg/mL
MIC (Escherichia coli [7]): 128 µg/mL
MIC (Pseudomonas aeruginosa [8]): > 128 µg/mL
MIC (Escherichia coli [9]): 128 µg/mL (≈ 379 µM)
MIC (Klebsiella pneumoniae [10]): > 128 µg/mL
MIC (Escherichia coli [11]): 128 µg/mL (≈ 379 µM)
